Test results taken from patent US12371454B2, “Cyclic peptide compound having Kras inhibitory action” (priority 2019, dated 2025).
Positions of bridges follow the written chain, without caps; N, C: chain ends. Non-standard residues stand in square brackets, D forms with d. Residues, ends and D or L forms follow the SMILES beside them. *: point of attachment. hPhe(3-Cl-4-CF3) = N[C@@H](CCc1ccc(C(F)(F)F)c(Cl)c1)C(=O)O; hPhe(4-CF3) = N[C@@H](CCc1ccc(C(F)(F)F)cc1)C(=O)O; NMePhe(4-Cl) = CN[C@@H](Cc1ccc(Cl)cc1)C(=O)O; NMePhe(2-CN) = CN[C@@H](Cc1ccccc1C#N)C(=O)O; NMePhe(4-Me) = CN[C@@H](Cc1ccc(C)cc1)C(=O)O; Oic = O=C(O)[C@@H]1C[C@@H]2CCCC[C@@H]2N1; NMeGly(cPent) = CN[C@H](C(=O)O)C1CCCC1; Phe(3-I) = N[C@@H](Cc1cccc(I)c1)C(=O)O; NMe3Pal = CN[C@@H](Cc1cccnc1)C(=O)O; NMeGly(cBu) = CN[C@H](C(=O)O)C1CCC1; NMeCha = CN[C@@H](CC1CCCCC1)C(=O)O; NMeChg = CN[C@H](C(=O)O)C1CCCCC1; hPhe = N[C@@H](CCc1ccccc1)C(=O)O; NMeD = CN[C@@H](CC(=O)O)C(=O)O; NMeL = CN[C@@H](CC(C)C)C(=O)O; Chg = N[C@H](C(=O)O)C1CCCCC1; NMeV = CN[C@H](C(=O)O)C(C)C; d(β3hA) = C[C@@H](N)CC(=O)O; NMeA = CN[C@@H](C)C(=O)O; NMeAib = CNC(C)(C)C(=O)O; Nle = CCCC[C@H](N)C(=O)O; Piperidide = C1CCN(*)CC1; dNMeA = CN[C@H](C)C(=O)O; Ac5c = NC1(C(=O)O)CCCC1; Aze = O=C(O)[C@@H]1CCN1; Aib = CC(C)(N)C(=O)O; Sar = CNCC(=O)O

What follows are compounds tested against T1, Kras and SOS1 (biotin-tagged human Kras loaded with GDP, His-tagged human SOS1) (Homo sapiens, UniProt P01116, G12D) (assay: Protein-protein interaction inhibition between Kras and SOS1 (KrasGl2D-SOS PPI) using AlphaScreen). Conditions: AlphaScreen; biotin-tagged human Kras loaded with GDP, His-tagged human SOS1; read-out: KRAS G12D-SOS PPI IC50.
T1 construct: made in house; host or cells: E. coli (stated for Kras only)
T1 sequence (P01116 1-188 isoform P01116-2 G12D): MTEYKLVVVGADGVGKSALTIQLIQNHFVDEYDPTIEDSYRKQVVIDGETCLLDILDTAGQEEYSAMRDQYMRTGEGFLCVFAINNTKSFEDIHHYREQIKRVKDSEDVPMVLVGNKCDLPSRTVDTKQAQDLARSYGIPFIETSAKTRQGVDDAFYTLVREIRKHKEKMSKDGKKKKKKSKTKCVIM
Format: binding
Summary of the method: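 Binding between SOS1 and Kras is detected as bead-proximity luminescence: illuminate Ni-conjugated donors (680 nm), collect 520-620 nm emission from streptavidin-conjugated acceptors; Kras carries biotin and GDP loaded after purification, SOS1 carries a His tag.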
For `CC[C@H](C)[C@@H]1NC(=O)[C@H](CC(C)C)N(C)C(=O)C[C@@H](C(=O)N2CCCCC2)N(C)C(=O)[C@H](C2CCCCC2)N(C)C(=O)[C@@H](C)NC(=O)[C@@H]2CCCN2C(=O)[C@H](CCc2ccc(C(F)(F)F)c(Cl)c2)NC(=O)CN(C)C(=O)[C@H](CC2CCCCC2)N(C)C(=O)CN(C)C(=O)CN(C)C1=O` [Compound 917] ([NMeL]I[Sar][Sar][NMeCha][Sar][hPhe(3-Cl-4-CF3)]P[dA][NMeChg][NMeD]-Piperidide; lactam N-11), the IC50 was 2 nM.
For `CC[C@H](C)[C@@H]1NC(=O)[C@H](C)N(C)C(=O)C[C@@H](C)NC(=O)[C@H](C2CCCC2)N(C)C(=O)C2(CCCC2)NC(=O)[C@@H]2CCCN2C(=O)[C@H](CCc2ccc(C(F)(F)F)c(Cl)c2)NC(=O)[C@@H](C)N(C)C(=O)[C@H](Cc2cccnc2)N(C)C(=O)CN(C)C(=O)CN(C)C1=O` [Compound 919] (cyclo([Ac5c][NMeGly(cPent)][d(β3hA)][NMeA]I[Sar][Sar][NMe3Pal][dNMeA][hPhe(3-Cl-4-CF3)]P)), the IC50 was 52 nM.
For `CC[C@H](C)[C@@H]1NC(=O)[C@H](CC(C)C)N(C)C(=O)C[C@@H](C)NC(=O)[C@H](CC(C)C)N(C)C(=O)C(C)(C)NC(=O)[C@@H]2C[C@@H]3CCCC[C@@H]3N2C(=O)[C@H](CCc2ccc(C(F)(F)F)cc2)NC(=O)CN(C)C(=O)[C@H](Cc2ccc(Cl)cc2)N(C)C(=O)CN(C)C(=O)CN(C)C1=O` [Compound 922] (cyclo([Aib][NMeL][d(β3hA)][NMeL]I[Sar][Sar][NMePhe(4-Cl)][Sar][hPhe(4-CF3)][Oic])), the IC50 was 230 nM.
With `CC[C@H](C)[C@@H]1NC(=O)[C@H](CC(C)C)N(C)C(=O)C[C@@H](C(=O)N2CCCCC2)N(C)C(=O)[C@H](CC(C)C)NC(=O)C(C)(C)N(C)C(=O)[C@H](CCc2ccccc2)NC(=O)[C@H](Cc2cccc(I)c2)NC(=O)CN(C)C(=O)[C@H](CC2CCCCC2)N(C)C(=O)[C@@H]2CCN2C(=O)CN(C)C1=O` [Compound 931] ([NMeL]I[Sar][Aze][NMeCha][Sar][Phe(3-I)][hPhe][NMeAib]L[NMeD]-Piperidide; lactam N-11) the IC50 was 270 nM.
Compound `CC[C@H](C)[C@@H]1NC(=O)[C@H](CC(C)C)N(C)C(=O)C[C@@H](C)NC(=O)[C@H](C2CCCC2)N(C)C(=O)[C@H](C(C)C)NC(=O)[C@@H]2CCCN2C(=O)[C@H](CCc2ccc(C(F)(F)F)c(Cl)c2)NC(=O)CN(C)C(=O)[C@H](Cc2ccc(C)cc2)N(C)C(=O)[C@@H]2CCN2C(=O)[C@H](C)N(C)C1=O` [Compound 933] (cyclo([Aze][NMePhe(4-Me)][Sar][hPhe(3-Cl-4-CF3)]PV[NMeGly(cPent)][d(β3hA)][NMeL]I[NMeA])) has an IC50 of 83 nM.
`CCCC[C@@H]1NC(=O)[C@H](Cc2cccc(I)c2)NC(=O)CN(C)C(=O)[C@H](Cc2ccc(Cl)cc2)N(C)C(=O)CN(C)C(=O)CN(C)C(=O)[C@H]([C@@H](C)CC)NC(=O)[C@H](CC(C)C)N(C)C(=O)C[C@@H](C(=O)N2CCCCC2)N(C)C(=O)[C@H](CC(C)C)NC(=O)[C@H](Cc2ccc(Cl)cc2)N(C)C1=O` [Compound 934] ([NMeL]I[Sar][Sar][NMePhe(4-Cl)][Sar][Phe(3-I)][Nle][NMePhe(4-Cl)]L[NMeD]-Piperidide; lactam N-11) showed an IC50 of 34 nM.
Compound `CC[C@H](C)[C@@H]1NC(=O)[C@H](CC(C)C)N(C)C(=O)C[C@@H](C(=O)N2CCCCC2)N(C)C(=O)[C@H](C(C)C)N(C)C(=O)C2(CCCC2)NC(=O)[C@@H]2CCCN2C(=O)[C@H](CCc2ccc(C(F)(F)F)c(Cl)c2)NC(=O)CN(C)C(=O)[C@H](Cc2ccccc2C#N)N(C)C(=O)CN(C)C(=O)CN(C)C1=O` [Compound 935] ([NMeL]I[Sar][Sar][NMePhe(2-CN)][Sar][hPhe(3-Cl-4-CF3)]P[Ac5c][NMeV][NMeD]-Piperidide; lactam N-11) has an IC50 of 6 nM.
Compound `CC[C@H](C)[C@@H]1NC(=O)[C@H](CC(C)C)N(C)C(=O)C[C@@H](C(=O)N2CCCCC2)N(C)C(=O)[C@H](C2CCCCC2)N(C)C(=O)C2(CCCC2)NC(=O)[C@@H]2CCCN2C(=O)[C@H](CCc2ccc(C(F)(F)F)c(Cl)c2)NC(=O)CN(C)C(=O)[C@H](C2CCC2)N(C)C(=O)CN(C)C(=O)CN(C)C1=O` [Compound 936] ([NMeL]I[Sar][Sar][NMeGly(cBu)][Sar][hPhe(3-Cl-4-CF3)]P[Ac5c][NMeChg][NMeD]-Piperidide; lactam N-11) has an IC50 of 1.1 nM.
Work on `CC(C)C[C@H]1C(=O)N[C@@H](C2CCCCC2)C(=O)N(C)CC(=O)N(C)CC(=O)N(C)[C@@H](CC2CCCCC2)C(=O)N(C)CC(=O)N[C@@H](CCc2ccc(C(F)(F)F)c(Cl)c2)C(=O)N2CCC[C@H]2C(=O)NC2(CCCC2)C(=O)N(C)[C@@H](C(C)C)C(=O)N[C@H](C)CC(=O)N1C` [Compound 937] (cyclo([Ac5c][NMeV][d(β3hA)][NMeL][Chg][Sar][Sar][NMeCha][Sar][hPhe(3-Cl-4-CF3)]P)) yielded an IC50 of 250 nM.
